Drawing on patent publication US8778929B2, “Substituted heteroaryl inhibitors of B-RAF” (Boehringer Ingelheim International GmbH, priority 2008, dated 2014), this text covers remaining activity for 46 compounds.

Molecules are shown by their SMILES.

The assay addresses B-Raf (V600E)-kinase (Homo sapiens, UniProt P15056, V600E). As to the kind of experiment: Kinase test B-Raf (V600E). The class given is biochemical. The note with it: 100% = no inhibition, 0% = total inhibition, read-out: % CTL (residual activity of the enzyme relative to DMSO control); for remaining activity at 2 µM: compound concentration 2 μM. The method, then:
In a dilution series 10 μL of test substance solution are placed in a multiwell plate. The dilution series is selected so that generally a range of concentrations of 2 μM to 0.119 nM or 0.017 nM is covered. If necessary the initial concentration of 2 μM is changed to 50 μM, 10 μM or 0.4 μM or 0.2857 μM and further dilution is carried out accordingly. The final concentration of DMSO is 5%. 10 μL of the B-Raf (V600E)-kinase solution are pipetted in (containing 0.5 ng B-Raf (V600E)-kinase in 20 mM Tris-HCl pH 7.5, 0.1 mM EDTA, 0.1 mM EGTA, 0.286 mM sodium orthovanadate, 10% glycerol, 1 mg/mL bovine serum albumin, 1 mM dithiothreitol) and the mixture is incubated for 1 h at RT under with shaking The kinase reaction is started by the addition of 20 μL ATP solution [final concentration: 250 μM ATP, 30 mM Tris-HCl pH 7.5, 0.02% Brij, 0.2 mM sodium orthovanadate, 10 mM magnesium acetate, 0.1 mM EGTA, phosphatase cocktail (Sigma, # P2850, dilution recommended by the manufacturer), 0.1 mM EGTA] and 10 μL MEK1 solution [containing 50 ng biotinylated MEK1 (prepared from purified MEK1 according to standard procedure, e.g. with EZ-Link Sulpho-NHS-LC-Biotin reagent, Pierce, # 21335) and carried out for 60 min at RT with constant shaking. The reaction is stopped by the addition of 12 μL of a 100 mM EDTA solution and incubation is continued for a further 5 min. 55 μL of the reaction solution are transferred into a streptavidin-coated plate (e.g. Streptawell HighBond, Roche, #11989685001) and shaken gently for 1 h at RT, in order to bind biotinylated MEK1 to the plate. After elimination of the liquid the plate is washed five times with 200 μL of 1×PBS and 100 μL solution of primary antibody plus europium-labelled secondary antibody [Anti Phospho-MEK (Ser217/221), Cell Signaling, # 9121 and Eu-N1 labeled goat-anti-rabbit antibody, Perkin Elmer, #AD0105], the primary antibody is diluted 1:2000 and the secondary antibody is diluted to 0.4-0.5 μg/mL in Delfia Assay Buffer (Perkin Elmer, #1244-111). After 1 h shaking at RT the solution is poured away and washed five times with 200 μL Delfia Wash Buffer (Perkin Elmer, #4010-0010/#1244-114). After the addition of 200 μL Enhancement Solution (Perkin Elmer, #4001-0010/#1244-105) the mixture is shaken for 10 min at RT and then measured in a Wallac Victor using the program “Delfia Time Resolved Fluorescence (Europium)”. IC50 values are obtained from these dosage-activity curves using a software program (GraphPadPrizm).
A value of 100% indicates no inhibition while a value of 0% indicates total inhibition. The % CTL values denote the residual activity of the enzyme after the addition of the inhibitory compound in the solvent DMSO in relation to the enzyme activity in the solvent DMSO without the addition of a compound (control). The values were determined using the B-Raf(V600E)-kinase test described above.

B-Raf (V600E)-kinase, sequence (P15056 whole entry V600E): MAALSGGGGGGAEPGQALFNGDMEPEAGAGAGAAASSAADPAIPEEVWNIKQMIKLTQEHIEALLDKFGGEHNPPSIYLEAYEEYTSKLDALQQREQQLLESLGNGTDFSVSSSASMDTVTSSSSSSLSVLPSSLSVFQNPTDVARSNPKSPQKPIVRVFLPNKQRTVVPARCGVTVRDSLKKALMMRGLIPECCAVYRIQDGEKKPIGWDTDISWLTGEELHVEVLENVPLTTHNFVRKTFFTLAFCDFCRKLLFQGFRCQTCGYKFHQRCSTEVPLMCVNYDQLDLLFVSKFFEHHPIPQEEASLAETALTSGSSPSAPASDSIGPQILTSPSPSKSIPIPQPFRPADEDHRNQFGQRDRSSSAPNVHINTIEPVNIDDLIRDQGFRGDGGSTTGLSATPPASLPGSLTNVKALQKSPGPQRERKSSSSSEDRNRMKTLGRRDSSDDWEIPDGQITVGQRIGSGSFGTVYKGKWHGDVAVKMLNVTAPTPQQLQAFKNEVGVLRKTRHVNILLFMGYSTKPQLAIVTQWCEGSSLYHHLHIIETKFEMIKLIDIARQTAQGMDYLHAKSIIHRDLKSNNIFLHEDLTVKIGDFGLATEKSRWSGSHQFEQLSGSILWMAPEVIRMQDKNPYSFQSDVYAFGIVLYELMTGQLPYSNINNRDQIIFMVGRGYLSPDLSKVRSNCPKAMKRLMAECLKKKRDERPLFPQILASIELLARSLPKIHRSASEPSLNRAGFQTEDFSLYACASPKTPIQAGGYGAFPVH

Take `Cc1ncc(C(=O)Nc2cc(C(C)(C)C)on2)cc1-n1cc(-c2cnn(C)c2C)nn1` [Example I-1]: the remaining activity at 2 µM came to 7.6%.

In the case of `Cc1ncc(C(=O)Nc2cc(C(F)(F)F)ccn2)cc1-n1cc(-c2cnn(C)c2C)nn1` [Example I-2], the remaining activity at 2 µM was found to be 8%.

For the compound `Cc1ncc(C(=O)Nc2cc(N3CCN(C)CC3)cc(C(F)(F)F)c2)cc1-n1cc(-c2cnn(C)c2C)nn1` [Example I-3], the remaining activity at 2 µM was found to be 8.7%.

As for `Cc1ncc(C(=O)Nc2cc(C(C)(C)C)nn2C)cc1-n1cc(-c2cnn(C)c2C)nn1` [Example I-4], the remaining activity at 2 µM turned out to be 1.7%.

As for `Cc1ncc(C(=O)Nc2cc(N3CCN(C)CC3)c(C)c(C(F)(F)F)c2)cc1-n1cc(-c2cnn(C)c2C)nn1` [Example I-6], the remaining activity at 2 µM was found to be 2.1%.

With `COc1ccc(NC(=O)c2cnc(C)c(-n3cc(-c4cnn(C)c4C)nn3)c2)cc1C(F)(F)F` [Example I-7], the remaining activity at 2 µM came out at 2%.

Regarding `Cc1ccc(C(F)(F)F)cc1NC(=O)c1cnc(C)c(-n2cc(-c3cnn(C)c3C)nn2)c1` [Example I-8], the remaining activity at 2 µM is 1.6%.

On to `COc1c(NC(=O)c2cnc(C)c(-n3cc(-c4cnn(C)c4C)nn3)c2)cc(C(C)(C)C)cc1NS(C)(=O)=O` [Example I-9], for which the remaining activity at 2 µM is 1.4%.

Turning to `Cc1ncc(C(=O)Nc2cc(N3CCN(C)CC3)c(F)c(C(F)(F)F)c2)cc1-n1cc(-c2cnn(C)c2C)nn1` [Example I-10], the remaining activity at 2 µM turned out to be 1.1%.

With `Cc1ncc(C(=O)Nc2cc(CN3CCCC3)cc(C(F)(F)F)c2)cc1-n1cc(-c2cnn(C)c2C)nn1` [Example I-12], the remaining activity at 2 µM amounted to 1.8%.

Consider `COc1c(CNC(C)C)cc(C(F)(F)F)cc1NC(=O)c1cnc(C)c(-n2cc(-c3cnn(C)c3C)nn2)c1` [Example I-13], for which the remaining activity at 2 µM amounted to 2.3%.

As for `CC(=O)Nc1ncc(-c2cn(-c3cc(C(=O)Nc4cc(C(F)(F)F)ccn4)cnc3C)nn2)s1` [Example I-14], the remaining activity at 2 µM came to 1.4%.

On to `CC(=O)Nc1ncc(-c2cn(-c3cc(C(=O)Nc4cc(CN5CCCC5)cc(C(F)(F)F)c4)cnc3C)nn2)s1` [Example I-15], for which the remaining activity at 2 µM was found to be 1.4%.

Turning to `CC(=O)Nc1ncc(-c2cn(-c3cc(C(=O)Nc4cc(N5CCN(C)CC5)cc(C(F)(F)F)c4)cnc3C)nn2)s1` [Example I-16], the remaining activity at 0.29 µM (measurement at 0.29 μM (*)) was 2%.

On to `Cc1ncc(C(=O)Nc2cc(N3CCN(C)CC3)cc(C(F)(F)F)c2)cc1-n1cc(-c2cncnc2)nn1` [Example I-18], for which the remaining activity at 2 µM came out at 2.4%.

`CCN1CCN(c2cc(NC(=O)c3cnc(C)c(-n4cc(-c5cncnc5)nn4)c3)cc(C(F)(F)F)c2C)CC1` [Example I-20]: the remaining activity at 2 µM is 1.9%.

`Cc1ncc(C(=O)Nc2cc(C(C)(C)C)on2)cc1-n1cc(-c2cncnc2)nn1` [Example I-21]: the remaining activity at 2 µM worked out at 2.2%.

Take `Cc1ncc(C(=O)Nc2cc(C(F)(F)F)ccn2)cc1-n1cc(-c2cncnc2)nn1` [Example I-23]: the remaining activity at 2 µM worked out at 5.9%.

Consider `COc1cncc(-c2cn(-c3cc(C(=O)Nc4cc(N5CCN(C)CC5)cc(C(F)(F)F)c4)cnc3C)nn2)c1` [Example I-24], for which the remaining activity at 2 µM came out at 1%.

As to `COc1cncc(-c2cn(-c3cc(C(=O)Nc4cc(N5CCN(C)CC5)c(F)c(C(F)(F)F)c4)cnc3C)nn2)c1` [Example I-25], the remaining activity at 2 µM is 2.2%.

`CCN1CCN(c2cc(NC(=O)c3cnc(C)c(-n4cc(-c5cncc(OC)c5)nn4)c3)cc(C(F)(F)F)c2C)CC1` [Example I-26]: the remaining activity at 2 µM is 1.4%.

With `COc1cncc(-c2cn(-c3cc(C(=O)Nc4cc(C(C)(C)C)on4)cnc3C)nn2)c1` [Example I-27], the remaining activity at 2 µM came out at 3.3%.

As for `COc1cncc(-c2cn(-c3cc(C(=O)Nc4cc(C(F)(F)F)ccn4)cnc3C)nn2)c1` [Example I-29], the remaining activity at 2 µM is 2.5%.

As to `Cc1cn2c(-c3cn(-c4cc(C(=O)Nc5cc(C(C)(C)C)nn5C)cnc4C)nn3)cnc2cn1` [Example I-30], the remaining activity at 2 µM was 6.9%.

Take `Cc1cn2c(-c3cn(-c4cc(C(=O)Nc5cc(C(F)(F)F)ccn5)cnc4C)nn3)cnc2cn1` [Example I-32]: the remaining activity at 2 µM came to 1.5%.

In the case of `COc1ccc(NC(=O)c2cnc(C)c(-n3cc(-c4cnc5cnc(C)cn45)nn3)c2)cc1C(F)(F)F` [Example I-33], the remaining activity at 2 µM came out at 1.4%.

On to `Cc1ncc(C(=O)Nc2cc(C(C)(C)C)on2)cc1-n1cc(-c2cncc(Br)c2)nn1` [Example I-34], for which the remaining activity at 2 µM was found to be 1.5%.

`Cc1ncc(C(=O)Nc2cc(C(C)(C)C)on2)cc1-n1cc(-c2cncc(N3CCOCC3)c2)nn1` [Example I-35]: the remaining activity at 2 µM was 1.7%.

As to `Cc1ncc(C(=O)Nc2cc(C(C)(C)C)on2)cc1-n1cc(-c2cncc(N3CCCOCC3)c2)nn1` [Example I-36], the remaining activity at 2 µM amounted to 1.8%.

For the compound `Cc1ncc(C(=O)Nc2cc(C(C)(C)C)on2)cc1-n1cc(-c2cncc(NC3CCOC3)c2)nn1` (stereo not shown) [Example I-37], the remaining activity at 2 µM turned out to be 2.5%.

In the case of `Cc1ncc(C(=O)Nc2cc(C(C)(C)C)on2)cc1-n1cc(-c2cncc(N(C)C3CCOC3)c2)nn1` (stereo not shown) [Example I-38], the remaining activity at 2 µM worked out at 2.4%.

In the case of `Cc1ncc(C(=O)Nc2cc(C(C)(C)C)on2)cc1-n1cc(-c2cncc(N3CCN(C)CC3)c2)nn1` [Example I-39], the remaining activity at 2 µM came out at 1.5%.

Consider `Cc1ncc(C(=O)Nc2cc(C(C)(C)C)on2)cc1-n1cc(-c2cncc(NC3CCOCC3)c2)nn1` [Example I-40], for which the remaining activity at 2 µM was 1.4%.

On to `COCCNc1cncc(-c2cn(-c3cc(C(=O)Nc4cc(C(C)(C)C)on4)cnc3C)nn2)c1` [Example I-41], for which the remaining activity at 2 µM was 1.1%.

As for `Cc1ncc(C(=O)Nc2cc(C(C)(C)C)no2)cc1-n1cc(-c2cnn(C)c2C)nn1` [Example I-42], the remaining activity at 2 µM was found to be 1.6%.

For the compound `CCN1CCN(c2cc(NC(=O)c3cnc(C)c(-n4cc(-c5cncs5)nn4)c3)cc(C(F)(F)F)c2C)CC1` [Example I-43], the remaining activity at 2 µM came out at 1.1%.

Turning to `Cc1cn2c(-c3cn(-c4cc(C(=O)Nc5cc(N6CCN(C)CC6)c(C)c(C(F)(F)F)c5)cnc4C)nn3)cnc2cn1` [Example I-44], the remaining activity at 2 µM was found to be 3.3%.

On to `Cc1cn2c(-c3cn(-c4cc(C(=O)Nc5cc(N6CCN(C)CC6)cc(C(F)(F)F)c5)cnc4C)nn3)cnc2cn1` [Example I-45], for which the remaining activity at 2 µM was found to be 3.2%.

In the case of `CCN1CCN(c2cc(NC(=O)c3cnc(C)c(-n4cc(-c5cccnc5)nn4)c3)cc(C(F)(F)F)c2C)CC1` [Example I-46], the remaining activity at 2 µM came to 6.1%.

Consider `CCN1CCN(c2cc(NC(=O)c3cnc(C)c(-n4cc(-c5ccc(NC(C)=O)nc5)nn4)c3)cc(C(F)(F)F)c2C)CC1` [Example I-47], for which the remaining activity at 2 µM is 2%.

For the compound `CCN1CCN(c2cc(NC(=O)c3cnc(C)c(-n4cc(-c5cnc(NC(C)=O)s5)nn4)c3)cc(C(F)(F)F)c2C)CC1` [Example I-48], the remaining activity at 2 µM came out at 1.7%.

With `CCN1CCN(c2cc(NC(=O)c3cnc(C)c(-n4cc(-c5cncc(C#N)c5)nn4)c3)cc(C(F)(F)F)c2C)CC1` [Example I-49], the remaining activity at 2 µM was 6.2%.

For `COc1c(CNC(C)C)cc(NC(=O)c2cnc(C)c(-n3cc(-c4cnc5cnc(C)cn45)nn3)c2)cc1C(F)(F)F` [Example I-50], the remaining activity at 2 µM is 2.2%.

Turning to `Cc1ncc(C(=O)Nc2cc(OC(F)(F)F)cc(N3CCN(C)CC3)c2)cc1-n1cc(-c2cncs2)nn1` [Example I-51], the remaining activity at 2 µM turned out to be 4%.

Turning to `Cc1ncc(C(=O)Nc2cc(CN(C)C)c(Cl)c(C(F)(F)F)c2)cc1-n1cc(-c2cnn(C)c2C)nn1` [Example I-52], the remaining activity at 2 µM turned out to be 1.6%.

Regarding `Cc1ncc(C(=O)Nc2cc(CN3CCCC3)c(Cl)c(C(F)(F)F)c2)cc1-n1cc(-c2cnn(C)c2C)nn1` [Example I-53], the remaining activity at 2 µM turned out to be 1.4%.
